The values below come from patent publication US10208019B2, “GLP-1 receptor agonists and uses thereof” (Pfizer Inc., priority 2016, dated 2019).

In this assay the target is human GLP-1R (Homo sapiens, UniProt P43220, G168S). As to the kind of experiment: CHO GLP-1R Clone H6—Assay 1: HTRF cAMP cell-based functional agonist assay (high GLP-1R density). As to conditions: for EC50: read-out: Assay 1 EC50, CHO GLP-1R Clone H6, cAMP HTRF, geometric mean; for Emax: read-out: Assay 1 Emax (%), CHO GLP-1R Clone H6.
Where [1] appears, read: relative to saturating concentration of full agonist GLP-1 (1 μM), arithmetic mean.

Sequence of human GLP-1R (P43220 24-463 G168S limits assumed): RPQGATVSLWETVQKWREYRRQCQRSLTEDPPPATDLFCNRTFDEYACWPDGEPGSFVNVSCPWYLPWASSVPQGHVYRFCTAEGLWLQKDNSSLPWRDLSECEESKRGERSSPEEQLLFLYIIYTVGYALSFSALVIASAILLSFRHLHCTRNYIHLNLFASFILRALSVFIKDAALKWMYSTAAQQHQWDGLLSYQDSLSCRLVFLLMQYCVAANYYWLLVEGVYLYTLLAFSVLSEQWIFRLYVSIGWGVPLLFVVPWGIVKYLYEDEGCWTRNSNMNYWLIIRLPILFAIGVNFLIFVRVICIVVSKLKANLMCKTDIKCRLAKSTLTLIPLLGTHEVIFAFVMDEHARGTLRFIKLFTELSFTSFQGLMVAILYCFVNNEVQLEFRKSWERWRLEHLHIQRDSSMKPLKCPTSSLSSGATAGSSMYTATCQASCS

Broadly, the EC50 is the concentration needed to bring the measured effect to its halfway point. Broadly, the Emax is the greatest response seen or fitted, relative to the assay's reference. Regarding `Cn1c(CN2CCC(c3cccc(OCc4ccc(C(F)(F)F)cc4)n3)CC2)nc2ccc(C(=O)O)cc21` [Example 9A-13, 1-methyl-2-{[4-(6-{[4-(trifluoromethyl)benzyl]oxy}pyridin-2-yl)piperidin-1-yl]methyl}-1H-benzimidazole-6-carboxylic acid], the EC50 turned out to be 170 nM. Moreover, the maximal response (Emax) under setting [1] was 68%. The matching figures for `Cn1c(CN2CCC(c3cccc(OCc4cc(F)ccc4F)n3)CC2)nc2ccc(C(=O)O)cc21` [Example 9A-14, 2-[(4-{6-[(2,5-difluorobenzyl)oxy]pyridin-2-yl}piperidin-1-yl)methyl]-1-methyl-1H-benzimidazole-6-carboxylic acid]: 1800 nM and 93%. The like results for `CN(C)CCn1c(CN2CCC(c3cccc(OCc4ccc(Cl)cc4F)n3)CC2)nc2ccc(C(=O)O)cc21` [Example 10A-11] were, in that order, 75 nM and 69%.

For `CN1CC(Cn2c(CN3CCC(c4cccc(OCc5ccc(Cl)cc5F)n4)CC3)nc3ccc(C(=O)O)cc32)C1` [Example 10A-19], under setting [1], the maximum response (Emax) is 100%. On to `Cc1nnc(CCn2c(CN3CCC(c4cccc(OCc5ccc(Cl)cc5F)n4)CC3)nc3ccc(C(=O)O)cc32)o1` [Example 10A-28], for which the concentration for a half-maximal effect (EC50) stood at 190 nM. Moreover, the Emax under setting [1] stood at 71%.

With `Cc1nnc(Cn2c(CN3CCC(c4cccc(OCc5ccc(Cl)cc5F)n4)CC3)nc3ccc(C(=O)O)cc32)o1` [Example 10A-29], the EC50 worked out at 390 nM. Moreover, under setting [1], the Emax was 82%. Regarding `Cn1cnc(Cn2c(CN3CCC(c4cccc(OCc5ccc(Cl)cc5F)n4)CC3)nc3ccc(C(=O)O)cc32)c1` [Example 10A-30], the EC50 was 550 nM. Besides, the maximal response (Emax) under setting [1] is 71%. The like results for `Cn1ccnc1Cn1c(CN2CCC(c3cccc(OCc4ccc(Cl)cc4F)n3)CC2)nc2ccc(C(=O)O)cc21` [Example 10A-38] were, in that order, 130 nM and 72%. The matching figures for `CCn1c(CN2CCC(c3cccc(OCc4ccc(Cl)cc4F)n3)CC2)nc2ccc(C(=O)O)cc21` [Example 10A-39]: 170 nM and 69%. In the case of `CC(C)n1c(CN2CCC(c3cccc(OCc4ccc(Cl)cc4F)n3)CC2)nc2ccc(C(=O)O)cc21` [Example 10A-40], the EC50 is 1200 nM. Also, the “Assay 1 Emax (%)” value (CHO GLP-1R Clone H6, relative to saturating concentration of full agonist GLP-1 (1 μM), arithmetic mean) worked out at 53%. As for `CC(C)(C)n1cnnc1Cn1c(CN2CCC(c3cccc(OCc4ccc(Cl)cc4F)n3)CC2)nc2ccc(C(=O)O)cc21` [Example 10A-46], the EC50 is 1700 nM. Besides, the maximum response (Emax) under setting [1] was 80%. `C[C@H]1CN(c2cccc(OCc3ccc(C#N)cc3)n2)CCN1Cc1nc2ccc(C(=O)O)cc2n1C[C@@H]1CCO1` [Example 10A-49, 2-{[(2S)-4-{6-[(4-cyanobenzyl)oxy]pyridin-2-yl}-2-methylpiperazin-1-yl]methyl}-1-[(2S)-oxetan-2-ylmethyl]-1H-benzimidazole-6-carboxylic acid]: the half-maximal effective concentration (EC50) was 0.56 nM. Also, the Emax under setting [1] is 73%.

As to `O=C(O)c1ccc2nc(CN3CCC(c4cccc(OCc5ccc(Cl)cc5F)n4)CC3)n(CCO)c2c1` [Example 10A-50], the EC50 stood at 290 nM. The Emax under setting [1] stood at 64%. The like results for `CCc1nc(Cn2c(CN3CCC(c4cccc(OCc5ccc(Cl)cc5F)n4)CC3)nc3ccc(C(=O)O)cc32)no1` [Example 10A-51] were, in that order, 390 nM and 72%. Regarding `CCc1noc(Cn2c(CN3CCC(c4cccc(OCc5ccc(Cl)cc5F)n4)CC3)nc3ccc(C(=O)O)cc32)n1` [Example 10A-52], the EC50 was found to be 1300 nM. In addition, under setting [1], the maximal response (Emax) was 79%. The like results for `CC1(Cn2c(CN3CCC(c4cccc(OCc5ccc(Cl)cc5F)n4)CC3)nc3ccc(C(=O)O)cc32)CCO1` (stereo not shown) [Example 10A-53] were, in that order, 3.2 nM and 68%. The like results for `O=C(O)c1ccc2nc(CN3CCC(c4cccc(OCc5ccc(Cl)cc5F)n4)CC3)n(Cc3cnoc3)c2c1` [Example 10A-68] were, in that order, 140 nM and 76%. The matching figures for `O=C(O)c1ccc2nc(CN3CCC(c4cccc(OCc5ccc(Cl)cc5F)n4)CC3)n(Cc3ncon3)c2c1` [Example 10A-70]: 5 nM and 65%. Take `O=C(O)c1ccc2nc(CN3CCC(c4cccc(OCc5ccc(Cl)cc5F)n4)CC3)n(C[C@H]3CCOC3)c2c1` [Example 10A-72, 2-[(4-{6-[(4-chloro-2-fluorobenzyl)oxy]pyridin-2-yl}piperidin-1-yl)methyl]-1-[(3R)-tetrahydrofuran-3-ylmethyl]-1H-benzimidazole-6-carboxylic acid]: the concentration for a half-maximal effect (EC50) came to 3.4 nM. Under setting [1], the Emax is 79%. As for `CN1CCC1Cn1c(CN2CCC(c3cccc(OCc4ccc(Cl)cc4F)n3)CC2)nc2ccc(C(=O)O)cc21` (stereo not shown) [Example 10A-79], the concentration giving a half-maximal response (EC50) turned out to be 33 nM. Also, the Emax under setting [1] amounted to 80%. For the compound `Cn1cnc(CCn2c(CN3CCC(c4cccc(OCc5ccc(Cl)cc5F)n4)CC3)nc3ccc(C(=O)O)cc32)c1` [Example 11A-01, 2-[(4-{6-[(4-chloro-2-fluorobenzyl)oxy]pyridin-2-yl}piperidin-1-yl)methyl]-1-[2-(1-methyl-1H-imidazol-4-yl)ethyl]-1H-benzimidazole-6-carboxylic acid], the EC50 was above 10000 nM. Further, the maximal effect (Emax) under setting [1] came out at 85%.

As for `O=C(O)c1ccc2nc(CN3CCC(c4cccc(OCc5ccc(Cl)cc5F)n4)CC3)n(Cc3ccc(Cl)cn3)c2c1` [Example 11A-02, 2-[(4-{6-[(4-chloro-2-fluorobenzyl)oxy]pyridin-2-yl}piperidin-1-yl)methyl]-1-[(5-chloropyridin-2-yl)methyl]-1H-benzimidazole-6-carboxylic acid], the EC50 is above 15000 nM. The Emax under setting [1] came to 100%. The like results for `CCN1CCC(Cn2c(CN3CCC(c4cccc(OCc5ccc(Cl)cc5F)n4)CC3)nc3ccc(C(=O)O)cc32)C1` (stereo not shown) [Example 11A-03, 2-[(4-{6-[(4-chloro-2-fluorobenzyl)oxy]pyridin-2-yl}piperidin-1-yl)methyl]-1-[(1-ethylpyrrolidin-3-yl)methyl]-1H-benzimidazole-6-carboxylic acid] were, in that order, above 16000 nM and 100%. As for `CN1CCCC(Cn2c(CN3CCC(c4cccc(OCc5ccc(Cl)cc5F)n4)CC3)nc3ccc(C(=O)O)cc32)C1` (stereo not shown) [Example 11A-04, 2-[(4-{6-[(4-chloro-2-fluorobenzyl)oxy]pyridin-2-yl}piperidin-1-yl)methyl]-1-[(1-methylpiperidin-3-yl)methyl]-1H-benzimidazole-6-carboxylic acid], the EC50 is above 19000 nM. Further, the Emax under setting [1] was 100%. As to `O=C(O)c1ccc2nc(CN3CCC(c4cccc(OCc5ccc(Cl)cc5F)n4)CC3)n(CCC3CCCCO3)c2c1` (stereo not shown) [Example 11A-05, 2-[(4-{6-[(4-chloro-2-fluorobenzyl)oxy]pyridin-2-yl}piperidin-1-yl)methyl]-1-[2-(tetrahydro-2H-pyran-2-yl)ethyl]-1H-benzimidazole-6-carboxylic acid], the EC50 was above 20000 nM. Still for that read-out and setting: to `CC(C)c1cc(Cn2c(CN3CCC(c4cccc(OCc5ccc(Cl)cc5F)n4)CC3)nc3ccc(C(=O)O)cc32)on1` [Example 11A-06, 2-[(4-{6-[(4-chloro-2-fluorobenzyl)oxy]pyridin-2-yl}piperidin-1-yl)methyl]-1-{[3-(propan-2-yl)-1,2-oxazol-5-yl]methyl}-1H-benzimidazole-6-carboxylic acid] belongs above 20000 nM. Same read-out and setting: to `CN1CCC(CCn2c(CN3CCC(c4cccc(OCc5ccc(Cl)cc5F)n4)CC3)nc3ccc(C(=O)O)cc32)CC1` [Example 11A-07, 2-[(4-{6-[(4-chloro-2-fluorobenzyl)oxy]pyridin-2-yl}piperidin-1-yl)methyl]-1-[2-(1-methylpiperidin-4-yl)ethyl]-1H-benzimidazole-6-carboxylic acid] belongs above 20000 nM; to `CN1CCC(Cn2c(CN3CCC(c4cccc(OCc5ccc(Cl)cc5F)n4)CC3)nc3ccc(C(=O)O)cc32)CC1` [Example 11A-08, 2-[(4-{6-[(4-chloro-2-fluorobenzyl)oxy]pyridin-2-yl}piperidin-1-yl)methyl]-1-[(1-methylpiperidin-4-yl)methyl]-1H-benzimidazole-6-carboxylic acid], above 20000 nM. The same measure, in the same setting: to `CN1CCCC1CCn1c(CN2CCC(c3cccc(OCc4ccc(Cl)cc4F)n3)CC2)nc2ccc(C(=O)O)cc21` (stereo not shown) [Example 11A-09, 2-[(4-{6-[(4-chloro-2-fluorobenzyl)oxy]pyridin-2-yl}piperidin-1-yl)methyl]-1-[2-(1-methylpyrrolidin-2-yl)ethyl]-1H-benzimidazole-6-carboxylic acid] belongs above 20000 nM. For the compound `CN1CCCCC1Cn1c(CN2CCC(c3cccc(OCc4ccc(Cl)cc4F)n3)CC2)nc2ccc(C(=O)O)cc21` (stereo not shown) [Example 11A-10, 2-[(4-{6-[(4-chloro-2-fluorobenzyl)oxy]pyridin-2-yl}piperidin-1-yl)methyl]-1-[(1-methylpiperidin-2-yl)methyl]-1H-benzimidazole-6-carboxylic acid], the EC50 is above 20000 nM. For the compound `CN1CCOC(CCn2c(CN3CCC(c4cccc(OCc5ccc(Cl)cc5F)n4)CC3)nc3ccc(C(=O)O)cc32)C1` (stereo not shown) [Example 11A-11, 2-[(4-{6-[(4-chloro-2-fluorobenzyl)oxy]pyridin-2-yl}piperidin-1-yl)methyl]-1[2-(4-methylmorpholin-2-yl)ethyl]-1H-benzimidazole-6-carboxylic acid], the concentration for a half-maximal effect (EC50) was above 20000 nM. Same read-out and setting: to `COCCN1CCC(Cn2c(CN3CCC(c4cccc(OCc5ccc(Cl)cc5F)n4)CC3)nc3ccc(C(=O)O)cc32)CC1` [Example 11A-12, 2-[(4-{6-[(4-chloro-2-fluorobenzyl)oxy]pyridin-2-yl}piperidin-1-yl)methyl]-1-{[1-(2-methoxyethyl)piperidin-4-yl]methyl}-1H-benzimidazole-6-carboxylic acid] belongs above 20000 nM.
